PMC10948610, “Profiling of Petroselinum sativum (mill.) fuss phytoconstituents and assessment of their biocompatibility, antioxidant, anti-aging, wound healing, and antibacterial activities” (Frontiers in Nutrition, 2024)

What was measured:
Assay in all cases: in vitro enzyme inhibition, optical density read-out
Format in all cases: biochemical
Settings in all cases: positive control; substrate, pH and temperature not given
Hyaluronidase = target: T1, Hyaluronidase
T1 construct: gene SPAM1; usual assay enzyme is native bovine testicular hyaluronidase
Description: in vitro enzyme inhibition, optical density read-out on Hyaluronidase

Elastase = target: T2, Elastase
T2 construct: gene CELA1; usual assay enzyme is native porcine pancreatic elastase, human neutrophil elastase possible
Description: in vitro enzyme inhibition, optical density read-out on Elastase

Collagenase = target: T3, Collagenase
T3 construct: gene colG; usual assay enzyme is native clostridial collagenase, human MMP1 possible
Description: in vitro enzyme inhibition, optical density read-out on Collagenase

Compound | Hyaluronidase / IC50 (Hyaluronidase) | Elastase / IC50 (Elastase) | Collagenase / IC50 (Collagenase)
O=c1cc(CO)occ1O [Kojic acid] | 14.46 ± 0.6 µg/mL | 21.60 ± 0.9 µg/mL | –
O=c1c(O)c(-c2ccc(O)c(O)c2)oc2cc(O)cc(O)c12 [Quercetin] | – | – | 24.83 ± 1.8 µg/mL
